Series [1] relates to substance P and glutamate. Kind of series: Clinical observation of suppression of substance P and glutamate by nitrous oxide. It is filed as in vivo. An excerpt: The length of treatment to suppress the severe cytokine reaction will vary and be influenced by the time to medically correct the initiating factor. […] For children, adjustments will have to be made for age and body weight. […] Other inhalants can be included in the above-compositions such as for other purposes.

For series [2] the following is noted: at effective dosages; cited from earlier work.

Take `[N-]=[N+]=O` [nitrous oxide]: the “Duration of substance P suppression, average cases” value in series [1] (average cases) lay within 4 to 8 h. Moreover, the “duration of suppression of substance P and glutamate” value in series [1] (conscious sedation levels, about 50% nitrous oxide/about 50% oxygen) was 6 to 8 h. In addition, the “respiratory depression, over sedation, or irritation of the lungs” value in series [2] was “does not cause respiratory depression, over sedation, or irritation of the lungs”.
